| SMILES | melting point |
| --- | --- |
| CC(C)(C)c1ccc(C(=O)Nc2cn3c(ccc4ccccc43)n2)cc1 [Example 50, 4-tert-butyl-N-(imidazo[1,2-a]quinolin-3-yl)benzamide] | 204 to 205 °C |
| CC(C)(c1ccc(C(=O)Nc2cn3cc(Cl)ccc3n2)cc1)c1nnn[nH]1 [Example 39, N-(6-chloroimidazo[1,2-a]pyridin-2-yl)-4-[1-methyl-1-(1H-tetrazol-5-yl)ethyl]benzamide] | 266 to 267 °C |
| CCC(=O)NC(C)(C)c1ccc(C(=O)Nc2cn3cc(Cl)ccc3n2)cc1 [Example 129, N-(6-chloroimidazo[1,2-a]pyridin-2-yl)-4-[1-methyl-1-(propionylamino)ethyl]benzamide] | 249 to 252 °C |
| Cc1ccc2nc(NC(=O)c3ccc(C(C)(C)CCC#N)cc3)cn2c1 [Example 438, 4-(3-cyano-1,1-dimethylpropyl)-N-(6-methylimidazo[1,2-a]pyridin-2-yl)benzamide] | 194 to 195 °C |
| CC(C)(C(=O)O)c1ccc(C(=O)Nc2cn3c4c(ccc3n2)OCC4)cc1 [Example 16, 2-[4-(1,2-dihydrofuro[2,3-e]imidazo[1,2-a]pyridin-7-ylcarbamoyl)phenyl]-2-methylpropanoic acid] | 293 to 295 °C |
| CC(C)(CCC#N)c1ccc(C(=O)Nc2cn3cc(C(F)(F)F)ccc3n2)cc1 [Example 445, 4-(3-cyano-1,1-dimethylpropyl)-N-[6-(trifluoromethyl)imidazo[1,2-a]pyridin-2-yl]benzamide] | 233 to 234 °C |
| CC(C)(CCC#N)c1ccc(C(=O)Nc2cn3cc(-n4ccnc4)ccc3n2)cc1 [Example 45, 4-(3-cyano-1,1-dimethylpropyl)-N-[6-(1H-imidazol-1-yl)imidazo[1,2-a]pyridin-2-yl]benzamide] | 233 to 234 °C |
| CC(C)(C)c1ccc(C(=O)Nc2cn3nc(NC4CC4)ccc3n2)cc1 [Example 166, 4-tert-butyl-N-[6-(cyclopropylamino)imidazo[1,2-b]pyridazin-2-yl]benzamide] | 274 to 275 °C |
| CCN(c1ccc(C(=O)Nc2cn3cc(Cl)ccc3n2)cc1)S(C)(=O)=O [Example 131, N-(6-chloroimidazo[1,2-a]pyridin-2-yl)-4-[ethyl(methylsulfonyl)amino]benzamide] | 245 to 247 °C |
| O=C(Nc1cn2cc(Cl)ccc2n1)c1ccc(C2(C(=O)O)CC2)cc1 [Example 189, 1-{4-[(6-chloroimidazo[1,2-a]pyridin-2-yl)carbamoyl]phenyl}cyclopropanecarboxylic acid] | 330 to 331 °C |
| CC(C)(C)c1ccc(C(=O)Nc2cn3ccccc3n2)cc1 [Example 54, 4-tert-butyl-N-(imidazo[1,2-a]pyridin-2-yl)benzamide] | 230 to 231 °C |
| COC(=O)C(C)(C)c1ccc(C(=O)Nc2cn3c4c(ccc3n2)OCC4)cc1 [Example 15, methyl 2-[4-(1,2-dihydrofuro[2,3-e]imidazo[1,2-a]pyridin-7-ylcarbamoyl)phenyl]-2-methylpropanoate] | 235 to 237 °C |
| CC(C)(N)c1ccc(C(=O)Nc2cn3cc(Cl)ccc3n2)cc1 [Example 92, 4-(1-amino-1-methylethyl)-N-(6-chloroimidazo[1,2-a]pyridin-2-yl)benzamide] | 235 to 237 °C |
| Cc1cccc2nc(NC(=O)c3ccc(C(C)(C)C)cc3)cn12 [Example 65, 4-tert-Butyl-N-(5-methylimidazo[1,2-a]pyridin-2-yl)benzamide] | 204 to 205 °C |
| CC(C)(CCC(=O)O)c1ccc(C(=O)Nc2cn3cc(Cl)ccc3n2)cc1 [Example 118, 4-(4-{[(6-chloroimidazo[1,2-a]pyridin-2-yl)amino]carbonyl}phenyl)-4-methylpentanoic acid] | 309 to 311 °C (dec.) |
| CC(C)(C)c1ccc(C(=O)Nc2cn3nc(-n4cnc(CC#N)c4)ccc3n2)cc1 [Example 142, 4-tert-butyl-N-{6-[4-(cyanomethyl)-1H-imidazol-1-yl]imidazo[1,2-b]pyridazin-2-yl}benzamide] | 314 to 316 °C (dec.) |
| CC(C)(C)c1ccc(C(=O)Nc2cn3nc(NC4CCNCC4)ccc3n2)cc1 [Example 171, 4-tert-butyl-N-[6-(piperidin-4-ylamino)imidazo[1,2-b]pyridazin-2-yl]benzamide] | 242 to 243 °C |
| CC(C)(C)c1ccc(C(=O)Nc2cn3nc(N4CCCC4)ccc3n2)cc1.Cl (hydrate or solvate) | 257 to 259 °C |
| Cc1c(NC(=O)c2ccc(C(C)(C)C)cc2)nc2ccc(Cl)nn12 [Example 55, 4-tert-butyl-N-(6-chloro-3-methylimidazo[1,2-b]pyridazin-2-yl)benzamide] | 269 to 270 °C |
| CC(C)c1ccc(C(=O)Nc2cn3cc(-n4ccnc4)ccc3n2)cc1 [Example 97, N-[6-(1H-imidazol-1-yl)imidazo[1,2-a]pyridin-2-yl]-4-isopropylbenzamide] | 291 to 293 °C |
| CC(C)(C)c1ccc(C(=O)Nc2cn3c4c(ccc3n2)OCC4)cn1 [Example 17, 6-tert-butyl-N-(1,2-dihydrofuro[2,3-e]imidazo[1,2-a]pyridin-7-yl)nicotinamide] | 246 to 248 °C |
| CC(C)(c1ccc(C(=O)Nc2cn3cc(Cl)ccc3n2)cc1)c1noc(=O)[nH]1 [Example 40, N-(6-chloroimidazo[1,2-a]pyridin-2-yl)-4-[1-methyl-1-(5-oxo-4,5-dihydro-1,2,4-oxadiazol-3-yl)ethyl]benzamide] | 310 to 312 °C |
| COC(=O)C(C)(C)c1ccc(C(=O)Nc2cn3cc(I)ccc3n2)cc1 [Example 23, methyl 2-{4-[(6-iodoimidazo[1,2-a]pyridin-2-yl)carbamoyl]phenyl}-2-methylpropanoate] | 234 to 235 °C |
| O=C([O-])c1ccc(C(=O)Nc2cn3cc(-n4ccnc4)ccc3n2)cc1.[K+] | > 400 °C |
| CC(C)(CCc1noc(=O)[nH]1)c1ccc(C(=O)Nc2cn3cc(C(F)(F)F)ccc3n2)cc1 [Example 447, 4-[1,1-dimethyl-3-(5-oxo-4,5-dihydro-1,2,4-oxadiazol-3-yl)propyl]-N-[6-(trifluoromethyl)imidazo[1,2-a]pyridin-2-yl]benzamide] | 268 to 270 °C |
| CC(C)(C)c1ccc(C(=O)Nc2cn3nc(NCc4cccnc4)ccc3n2)cc1 [Example 160, 4-tert-butyl-N-{6-[(pyridin-3-ylmethyl)amino]imidazo[1,2-b]pyridazin-2-yl}benzamide] | 232 to 233 °C |
| CC(C)(C)c1ccc(C(=O)Nc2cn3nc(N)ccc3n2)cc1.Cl | 312 to 313 °C |
| CC(C)(C)c1ccc(C(=O)Nc2cn3nc(NCCO)ccc3n2)cc1 [Example 169, 4-tert-butyl-N-{6-[(2-hydroxyethyl)amino]imidazo[1,2-b]pyridazin-2-yl}benzamide] | 231 to 233 °C |
| CC(C)(CCc1noc(=O)[nH]1)c1ccc(C(=O)Nc2cn3cc(-n4ccnc4)ccc3n2)cc1 [Example 437, 4-[1,1-dimethyl-3-(5-oxo-4,5-dihydro-1,2,4-oxadiazol-3-yl)propyl]-N-[6-(1H-imidazol-1-yl)imidazo[1,2-a]pyridin-2-yl]benzamide] | 283 to 284 °C |
| O=C(Nc1cn2cc(Cl)ccc2n1)c1ccc(-n2cccn2)cc1 [Example 95, N-(6-chloroimidazo[1,2-a]pyridin-2-yl)-4-(1H-pyrazol-1-yl)benzamide] | 287 to 289 °C |

— US20100029619A1, “FUSED HETEROCYCLIC COMPOUND” (TAKEDA PHARMACEUTICAL COMPANY LIMTED, priority 2006, published 2010)
